Toxic doses and inconclusive results are not listed. How the source made its calls: active means survival T/C of 150% or more; inactive means T/C below 125% in these data.
Tested on: CD2F1 mice, L1210 leukemia ip, survival T/C
Assay: NCI In Vivo Anticancer Drug Screen. Data for tumor model L1210 Leukemia (intraperitoneal) in CD2F1 (CDF1) mice
Settings: higher = longer survival
How it was run: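 Transplantable tumor in mice; compound-treated vs vehicle-treated groups. Read-out = treated/control ratio of the measured endpoint.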

[1] = endpoint: mean survival time, dose: 100.0 mg/kg/injection, schedule: Q01DX009 (ip), vehicle: saline
[2] = endpoint: mean survival time, dose: 50.0 mg/kg/injection, schedule: Q01DX009 (ip), vehicle: saline
[3] = endpoint: mean survival time, dose: 100.0 mg/kg/injection, schedule: Q04DX003 (ip), vehicle: saline with Tween-80
[4] = endpoint: mean survival time, dose: 200.0 mg/kg/injection, schedule: Q04DX003 (ip), vehicle: saline with Tween-80
[5] = endpoint: mean survival time, dose: 400.0 mg/kg/injection, schedule: Q04DX003 (ip), vehicle: saline with Tween-80

Measured: T/C

COc1ccc(C2=CCN(c3ccc(C)cc3)P(=O)(N(CCCl)CCCl)O2)cc1 (stereo unspecified)
inactive: endpoint: mean survival time, dose: 31.25 mg/kg/injection, schedule: Q01DX001 (ip), vehicle: saline 100 % of control | endpoint: mean survival time, dose: 62.5 mg/kg/injection, schedule: Q01DX001 (ip), vehicle: saline 100 % of control | endpoint: mean survival time, dose: 125.0 mg/kg/injection, schedule: Q01DX001 (ip), vehicle: saline 97 % of control | endpoint: mean survival time, dose: 250.0 mg/kg/injection, schedule: Q01DX001 (ip), vehicle: saline 102 % of control | endpoint: mean survival time, dose: 500.0 mg/kg/injection, schedule: Q01DX001 (ip), vehicle: saline 91 % of control

N#CCCCCN=[N+]=[N-]
inactive: endpoint: mean survival time, dose: 75.0 mg/kg/injection, schedule: Q01DX001 (ip), vehicle: saline 97 % of control | endpoint: mean survival time, dose: 150.0 mg/kg/injection, schedule: Q01DX001 (ip), vehicle: saline 103 % of control

O=C1c2ccccc2C(=O)c2cc(S(=O)(=O)Cl)ccc21
inactive: [1] 99 % of control | endpoint: mean survival time, dose: 200.0 mg/kg/injection, schedule: Q01DX009 (ip), vehicle: saline 92 % of control | endpoint: mean survival time, dose: 400.0 mg/kg/injection, schedule: Q01DX009 (ip), vehicle: saline 86 % of control

CCOC(=O)c1cnc(N(C)C)nc1SC(=N)N
inactive: [2] 102 % of control | [1] 118 % of control | endpoint: mean survival time, dose: 100.0 mg/kg/injection, schedule: Q04DX003 (ip), vehicle: saline 106 % of control | endpoint: mean survival time, dose: 200.0 mg/kg/injection, schedule: Q04DX003 (ip), vehicle: saline 91 % of control

CC(=O)c1ccc2c3c(cccc13)CC2
inactive: endpoint: mean survival time, dose: 100.0 mg/kg/injection, schedule: Q01DX001 (ip), vehicle: saline with Tween-80 94 % of control | endpoint: mean survival time, dose: 200.0 mg/kg/injection, schedule: Q01DX001 (ip), vehicle: saline with Tween-80 96 % of control | endpoint: mean survival time, dose: 400.0 mg/kg/injection, schedule: Q01DX001 (ip), vehicle: saline with Tween-80 110 % of control

CCSc1nc(N)c2ncn(C3OC(C)C(O)C(O)C3O)c2n1 (stereo unspecified)
inactive: endpoint: median survival time, dose: 12.5 mg/kg/injection, schedule: Q01DX005 (ip), vehicle: saline with Tween-80 106 % of control | endpoint: median survival time, dose: 25.0 mg/kg/injection, schedule: Q01DX005 (ip), vehicle: saline with Tween-80 101 % of control | endpoint: median survival time, dose: 50.0 mg/kg/injection, schedule: Q01DX005 (ip), vehicle: saline with Tween-80 94 % of control | endpoint: median survival time, dose: 100.0 mg/kg/injection, schedule: Q01DX005 (ip), vehicle: saline with Tween-80 103 % of control | endpoint: median survival time, dose: 200.0 mg/kg/injection, schedule: Q01DX005 (ip), vehicle: saline with Tween-80 100 % of control

CCc1cc(O)cc(C)c1Cl
inactive: endpoint: mean survival time, dose: 100.0 mg/kg/injection, schedule: Q01DX009 (ip), vehicle: saline with Tween-80 96 % of control | [3] 92 % of control | endpoint: mean survival time, dose: 200.0 mg/kg/injection, schedule: Q01DX009 (ip), vehicle: saline with Tween-80 92 % of control | [4] 92 % of control | [5] 100 % of control

Fc1ccc(NC(=S)SCc2ccc(Cl)c(Cl)c2)cc1F
inactive: endpoint: mean survival time, dose: 12.5 mg/kg/injection, schedule: Q01DX009 (ip), vehicle: saline 98 % of control | endpoint: mean survival time, dose: 12.5 mg/kg/injection, schedule: Q01DX009 (ip), vehicle: suspension in saline 98 % of control | endpoint: mean survival time, dose: 25.0 mg/kg/injection, schedule: Q01DX009 (ip), vehicle: saline 101 % of control | endpoint: mean survival time, dose: 25.0 mg/kg/injection, schedule: Q01DX009 (ip), vehicle: suspension in saline 108 % of control | endpoint: mean survival time, dose: 50.0 mg/kg/injection, schedule: Q01DX009 (ip), vehicle: Klucel (hydroxypropylcellulose) (HPC) 112 % of control | [2] 98 % of control | endpoint: mean survival time, dose: 50.0 mg/kg/injection, schedule: Q01DX009 (ip), vehicle: suspension in saline 103 % of control | endpoint: mean survival time, dose: 100.0 mg/kg/injection, schedule: Q01DX009 (ip), vehicle: Klucel (hydroxypropylcellulose) (HPC) 107 % of control | [1] 95 % of control | endpoint: mean survival time, dose: 100.0 mg/kg/injection, schedule: Q01DX009 (ip), vehicle: suspension in saline 104 % of control | endpoint: mean survival time, dose: 200.0 mg/kg/injection, schedule: Q01DX009 (ip), vehicle: Klucel (hydroxypropylcellulose) (HPC) 91 % of control

CCCOP(=S)(NCCOC)OCCC
inactive: [3] 103 % of control | [4] 101 % of control | [5] 103 % of control

Reference: PubChem BioAssay AID256 (DTP/NCI, 2004)
